# Laboratory results reported in PubChem BioAssay AID1224921 (Broad Institute, 2016).
# The source made the active and inactive calls. The rule behind the calls is not given here.
# Test system: Clostridioides difficile clinical isolate growth, OD600, 24 h
# Assay: inhibitors of Clostridioides difficile proliferation – 4-point retest, confirmation (AID 1224921)
row,Structure (SMILES),AC50
1,O=C(NCC[C@@H]1CC[C@H](NC(=O)C2CC2)[C@@H](CO)O1)Nc1ccc(C(F)(F)F)cc1,1.95 µM
2,O=C(C[C@H]1CC[C@H]2[C@@H](COC[C@H](O)CN2C(=O)Nc2ccc(Cl)c(Cl)c2)O1)NC1CCC1,2.03 µM
3,CCC(=O)N[C@H]1CC[C@H](CCNC(=O)Nc2ccc(C(F)(F)F)cc2)O[C@H]1CO,16.5 µM
4,C[C@@H]1CN([C@H](C)CO)S(=O)(=O)c2ccc(C#CC3CCCCC3)cc2O[C@@H]1CN(C)C,16.9 µM
5,C[C@@H]1CCCCO[C@@H](CN(C)Cc2ccccc2)[C@H](C)CN([C@H](C)CO)C(=O)c2cc(NC(=O)Nc3ccc(C(F)(F)F)cc3)ccc2O1,21.9 µM
6,CCC(=O)N[C@@H]1CC[C@@H](CCNC(=O)Nc2ccc(C(F)(F)F)cc2)O[C@H]1CO,2.75 µM
7,CO[C@@H]1CN(C)C(=O)c2cc(NC(=O)Nc3ccc(Cl)c(Cl)c3)ccc2OC[C@H](C)NC[C@@H]1C,8.13 µM
8,COc1ccccc1CNC(=O)C[C@H]1CC[C@@H]2[C@H](COC[C@H](O)CN2C(=O)Nc2ccc(C(F)(F)F)cc2)O1,1.04 µM
9,CO[C@@H](CN(C)C(=O)C1CC1)[C@@H](C)CN(C(=O)Nc1ccc(C(F)(F)F)cc1)[C@@H](C)CO,3.31 µM
10,CCNC(=O)C[C@H]1CC[C@H]2[C@@H](COC[C@@H](O)CN2C(=O)Nc2ccc(Cl)c(Cl)c2)O1,3.9 µM
11,CC(=O)N[C@H]1CC[C@@H](CCNC(=O)Nc2ccc(C(F)(F)F)cc2)O[C@@H]1CO,10.8 µM
12,O=C(C[C@@H]1CC[C@@H]2[C@H](COC[C@@H](O)CN2S(=O)(=O)c2ccccc2)O1)NCC1CCCCC1,15.2 µM
13,O=C(C[C@@H]1CC[C@H]2[C@@H](COC[C@H](O)CN2C(=O)Nc2ccc(Cl)c(Cl)c2)O1)NCc1ccc(Cl)cc1,2.61 µM
14,CN(C)CC(=O)N[C@@H]1C=C[C@@H](CC(=O)NCCN2CCCCC2)O[C@H]1CO,> 60 µM (inactive)
15,C[C@@H]1CN([C@@H](C)CO)C(=O)c2cccc(NC(=O)Nc3ccccc3)c2O[C@@H]1CN(C)Cc1ccc(C(F)(F)F)cc1,8.02 µM
16,Cc1ccc(S(=O)(=O)N[C@H]2CC[C@@H](CCNC(=O)Nc3ccc(Cl)cc3)O[C@H]2CO)cc1,18.2 µM
17,C[C@@H]1CCCCO[C@H](CN(C)Cc2ccccc2)[C@@H](C)CN([C@@H](C)CO)C(=O)c2cc(NC(=O)Nc3ccc(C(F)(F)F)cc3)ccc2O1,12.5 µM
18,C[C@H](CO)N1C[C@H](C)[C@H](CN(C)C(=O)Nc2ccc(C(F)(F)F)cc2)Oc2c(NC(=O)Nc3ccccc3)cccc2C1=O,> 60 µM (inactive)
19,CCCNC(=O)N1[C@@H](C#N)[C@H](c2ccc(C#Cc3ccc(F)cc3)cc2)[C@@H]1CO,36.3 µM
20,C[C@@H]1CN([C@H](C)CO)C(=O)c2cc(NS(=O)(=O)c3ccc(Cl)cc3)ccc2O[C@@H](C)CCCCO[C@H]1CN(C)Cc1ccc(C(F)(F)F)cc1,> 60 µM (inactive)
21,CO[C@@H](CN(C)S(=O)(=O)c1cn(C)cn1)[C@H](C)CN(C(=O)Nc1ccc(C(F)(F)F)cc1)[C@@H](C)CO,2.44 µM
22,O=C(C[C@H]1CC[C@@H](NC(=O)CCN2CCCCC2)[C@H](CO)O1)Nc1nccs1,> 60 µM (inactive)
23,C[C@H]1CN([C@@H](C)CO)S(=O)(=O)c2ccc(C#Cc3ccc(F)cc3)cc2O[C@@H]1CN(C)C,34.2 µM
24,CO[C@H]1CN(C)C(=O)c2ccc(NC(=O)Nc3cc(Cl)cc(Cl)c3)cc2OC[C@@H](C)NC[C@H]1C,15.1 µM

row,Structure (SMILES),AC50
1,O=C(C[C@H]1CC[C@@H]2[C@H](COC[C@@H](O)CN2C(=O)Nc2ccc(Cl)c(Cl)c2)O1)NCc1ccc(Cl)cc1,3.67 µM
2,CCCC(=O)Nc1ccc2c(c1)C(=O)N(C)[C@@H]1CC[C@@H](CC(=O)OC)O[C@@H]1CO2,> 60 µM (inactive)
3,O=C(C[C@H]1CC[C@H]2[C@@H](COC[C@@H](O)CN2C(=O)Nc2ccc(C(F)(F)F)cc2)O1)NCCc1ccncc1,3.88 µM
4,C[C@@H]1CN([C@@H](C)CO)C(=O)c2cc(NC(=O)Nc3ccc(C(F)(F)F)cc3)ccc2O[C@@H](C)CCCCO[C@H]1CN(C)CC1CCCCC1,4.9 µM
5,O=C(C[C@@H]1CC[C@@H]2[C@H](COC[C@H](O)CN2C(=O)Nc2cc(Cl)cc(Cl)c2)O1)N1CCOCC1,6.6 µM
6,C[C@@H]1CN([C@@H](C)CO)C(=O)c2cccc(NC(=O)Nc3ccc(C(F)(F)F)cc3)c2O[C@@H]1CN(C)Cc1ccccc1,3.65 µM
7,COc1cccc(C#Cc2ccc([C@@H]3[C@@H](C#N)N(C(=O)C4CCC4)[C@H]3CO)cc2)c1,> 60 µM (inactive)
8,O=C(C[C@H]1CC[C@@H]2[C@H](COC[C@@H](O)CN2S(=O)(=O)c2ccccc2)O1)NCC1CCCCC1,15.5 µM
9,COc1ccccc1S(=O)(=O)N(C)C[C@@H]1OCc2ccccc2-c2c(n(C)c3ccccc23)C(=O)N([C@H](C)CO)C[C@@H]1C,> 60 µM (inactive)
10,C[C@@H]1CCCCO[C@H](CN(C)Cc2ccc3c(c2)OCO3)[C@@H](C)CN([C@@H](C)CO)C(=O)c2cc(NC(=O)Nc3ccc(C(F)(F)F)cc3)ccc2O1,20.9 µM
11,COc1cccc(C#Cc2ccc([C@H]3[C@@H](CO)N(C(=O)C4CCCCC4)[C@H]3C#N)cc2)c1,19 µM
12,O=C(C[C@@H]1CC[C@H]2[C@@H](COC[C@H](O)CN2C(=O)Nc2ccc(Cl)c(Cl)c2)O1)NCc1ccc(F)cc1,1.3 µM
13,C[C@H]1CCCCO[C@@H](CN(C)CC2CCCCC2)[C@@H](C)CN([C@@H](C)CO)C(=O)c2cc(NC(=O)Nc3ccc(C(F)(F)F)cc3)ccc2O1,17.3 µM
14,CO[C@@H](CN(C)Cc1cc(F)ccc1F)[C@@H](C)CN(C(=O)Nc1ccc(C(F)(F)F)cc1)[C@@H](C)CO,13.1 µM
15,C[C@@H]1CN([C@H](C)CO)C(=O)c2cc(NC(=O)Nc3ccc(C(F)(F)F)cc3)ccc2O[C@@H](C)CCCCO[C@H]1CN(C)Cc1ccccc1,6.56 µM
16,C[C@H](CO)N1C[C@H](C)[C@@H](CN(C)CC2CCCC2)Oc2ncc(C#CCc3ccccc3)cc2C1=O,> 60 µM (inactive)
17,CO[C@@H]1CN(C)C(=O)c2cc(NC(=O)Nc3ccc(C(F)(F)F)cc3)ccc2OC[C@H](C)NC[C@H]1C,17.8 µM
18,COc1ccccc1C#Cc1ccc([C@H]2[C@@H](CO)N(C(=O)C3CCCCC3)[C@H]2C#N)cc1,34.2 µM
19,O=C(C[C@H]1CC[C@@H]2[C@H](COC[C@@H](O)CN2C(=O)Nc2ccc(Cl)c(Cl)c2)O1)NCc1ccc(Cl)c(Cl)c1,3.34 µM
20,CO[C@H]1CN(C)C(=O)c2cc(NC(=O)Nc3cc(Cl)cc(Cl)c3)ccc2OC[C@@H](C)NC[C@H]1C,9.49 µM
21,C[C@@H]1CN([C@H](C)CO)C(=O)c2cc(C#Cc3ccccc3F)cnc2O[C@H]1CN(C)C,23.3 µM
22,CO[C@H]1CN(C)C(=O)c2cc(NC(=O)Nc3ccc(Cl)c(Cl)c3)ccc2OC[C@@H](C)NC[C@H]1C,9.16 µM
23,C[C@@H]1CN([C@@H](C)CO)C(=O)Cc2cc(N(C)C)ccc2O[C@H]1CN(C)Cc1ccc(Oc2ccccc2)cc1,19.1 µM
24,O=C(C[C@H]1C[C@H]2c3cc(NC(=O)Nc4ccccc4)ccc3O[C@H]2[C@H](CO)O1)NC1CCCC1,> 60 µM (inactive)

row,Structure (SMILES),AC50
1,CO[C@H](CN(C)S(=O)(=O)c1cn(C)cn1)[C@H](C)CN(C(=O)Nc1ccc(C(F)(F)F)cc1)[C@@H](C)CO,7.66 µM
2,C[C@@H]1CCCCO[C@H](CN(C)CC2CC2)[C@H](C)CN([C@@H](C)CO)C(=O)c2cc(NC(=O)Nc3ccc(C(F)(F)F)cc3)ccc2O1,16 µM
3,C[C@@H]1CCCCO[C@@H](CN(C)CC2CC2)[C@H](C)CN([C@H](C)CO)C(=O)c2cc(NC(=O)Nc3ccc(C(F)(F)F)cc3)ccc2O1,15.9 µM
4,CCNC(=O)C[C@H]1CC[C@@H]2[C@H](COC[C@H](O)CN2C(=O)Nc2ccc(Cl)c(Cl)c2)O1,3.02 µM
5,O=C(C[C@@H]1CC[C@@H]2[C@H](COC[C@H](O)CN2C(=O)Nc2ccc(Cl)c(Cl)c2)O1)NC1CCC1,7.33 µM
6,CO[C@@H](CN(C)S(=O)(=O)c1cn(C)cn1)[C@@H](C)CN(C(=O)Nc1ccc(C(F)(F)F)cc1)[C@H](C)CO,16.5 µM
7,CC(C)CC#Cc1ccc2c(c1)O[C@H](CN(C)Cc1ccc(C(=O)O)cc1)[C@@H](C)CN([C@H](C)CO)S2(=O)=O,17.9 µM
8,O=C(C[C@@H]1CC[C@@H]2[C@H](COC[C@@H](O)CN2C(=O)Nc2ccc(C(F)(F)F)cc2)O1)NC1Cc2ccccc2C1,2.27 µM
9,C[C@H](CO)N1C[C@H](C)[C@H](CN(C)C(=O)Nc2ccc(F)cc2)Oc2c(NC(=O)Nc3ccc(C(F)(F)F)cc3)cccc2C1=O,33.7 µM
10,O=C(C[C@H]1CC[C@H]2[C@@H](COC[C@@H](O)CN2C(=O)Nc2ccc(C(F)(F)F)cc2)O1)NC1Cc2ccccc2C1,7.54 µM
11,C[C@@H]1CCCCO[C@H](CN(C)CC2CCCCC2)[C@H](C)CN([C@@H](C)CO)C(=O)c2cc(NC(=O)Nc3ccc(C(F)(F)F)cc3)ccc2O1,10.4 µM
12,O=C(N[C@H]1CC[C@H](CCNS(=O)(=O)c2ccc(Cl)cc2)O[C@H]1CO)c1ccccn1,> 60 µM (inactive)
13,O=C(NCC[C@@H]1CC[C@H](NC(=O)C2CC2)[C@H](CO)O1)Nc1ccc(C(F)(F)F)cc1,4.32 µM
14,CC(C)NC(=O)N1[C@H](CO)[C@@H](c2ccc(-c3ccc(F)cc3)cc2)[C@@H]1C#N,22.6 µM
15,CO[C@H](CN(C)C(=O)C1CCOCC1)[C@@H](C)CN(C(=O)Nc1ccc(C(F)(F)F)cc1)[C@H](C)CO,0.831 µM
16,O=C(C[C@@H]1CC[C@@H]2[C@H](COC[C@@H](O)CN2C(=O)Nc2ccc(C(F)(F)F)cc2)O1)NCCc1ccncc1,4.07 µM
17,O=C(NCC[C@H]1CC[C@@H](NC(=O)c2cccnc2)[C@H](CO)O1)Nc1ccc(C(F)(F)F)cc1,2.42 µM
18,O=C(C[C@@H]1CC[C@H]2[C@@H](COC[C@H](O)CN2S(=O)(=O)c2ccccc2)O1)NCC1CCCCC1,15.6 µM
19,C[C@@H]1CN([C@@H](C)CO)C(=O)c2cccc(NC(=O)Nc3ccc(C(F)(F)F)cc3)c2O[C@@H]1CN(C)Cc1ccc(Oc2ccccc2)cc1,< 0.5 µM
20,C[C@H](CO)N1C[C@H](C)[C@H](CN(C)CC2CCCCC2)Oc2ccc(NC(=O)Nc3ccc(C(F)(F)F)cc3)cc2C1=O,15.2 µM
21,O=C(C[C@@H]1CC[C@H]2[C@@H](COC[C@H](O)CN2C(=O)Nc2ccc(Cl)c(Cl)c2)O1)NCc1ccccc1,3.53 µM
22,C[C@@H]1CN([C@@H](C)CO)C(=O)c2cc(NC(=O)C3CC3)ccc2O[C@@H]1CN(C)C(=O)Nc1ccc(C(F)(F)F)cc1,8.92 µM
23,O=C(C[C@H]1CC[C@H]2[C@@H](COC[C@@H](O)CN2C(=O)Nc2ccc(Cl)c(Cl)c2)O1)NC1CCC1,4.29 µM
24,C[C@@H]1CN([C@@H](C)CO)C(=O)Cc2cc(N(C)C)ccc2O[C@H]1CN(C)Cc1ccc(C(F)(F)F)cc1,29.1 µM
